As usually defined, the EC50 is the midpoint of the concentration-response curve.

This is an account of results in patent US9273067B2, “Pyrazolopyrimidine macrocycles as inhibitors of human immunodeficiency virus replication” (BRISTOL-MYERS SQUIBB COMPANY, priority 2014, dated 2016).

The subject of the first test is NL-RLuc virus (recombinant HIV NL4-3 with Renilla Luciferase) in MT-2 cells. Put plainly: Inhibition of HIV replication (NL-RLuc virus in MT-2 cells, luciferase readout). Format: cell-based, human immunodeficiency virus (HIV). To be noted: MT2, 120 h, NL-RLuc virus infecting MT-2 cells, 5 days of incubation, 10% FBS, luciferase quantitation; at least 2 experiments. An outline of the steps: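 NL4-3 carrying Renilla luciferase in place of part of nef, produced in 293T cells, was used to infect MT-2 cells in RPMI 1640/10% FBS with serial compound dilutions. After 5 days, virus growth was read by luciferase. EC50 came from the median effect equation over at least 2 experiments.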
Consider `Cc1nc2cc3nn2c(c1[C@H](OC(C)(C)C)C(=O)O)N1CCC(C)(CC1)OCCCC[C@H](C)Oc1cc(F)cc(F)c1COC3` [Example 32, (2S)-2-(tert-Butoxy)-2-[(20S)-14,16-difluoro-4,20,26-trimethyl-11,19,25-trioxa-1,5,7,8-tetraazapentacyclo[24.2.2.1^6,^9.0^2,^7.0^13,^18]hentriaconta-2,4,6(31),8,13,15,17-heptaen-3-yl]acetic acid], for which the EC50 turned out to be 3 nM. Same read-out and setting: the result for `Cc1nc2cc3nn2c(c1[C@H](OC(C)(C)C)C(=O)O)N1CCC(C)(CC1)OCC=Cc1cc(C(F)(F)F)ccc1COC3` [Example 26, (2S)-2-(tert-Butoxy)-2-[4,23-dimethyl-16-(trifluoromethyl)-11,22-dioxa-1,5,7,8-tetraazapentacyclo[21.2.2.1^6,^9.0^2,^7.0^13,^18]octacosa-2,4,6(28),8,13(18),14,16,19-octaen-3-yl]acetic acid] reads 32 nM. Still for that read-out and setting: the value for `Cc1cc2c(cc1Cl)COCc1cc3nc(C)c([C@H](OC(C)(C)C)C(=O)O)c(n3n1)N1CCC(C)(CC1)OCCCC[C@H](C)O2` [Example 69, (2S)-2-(tert-Butoxy)-2-[(20S)-15-chloro-4,16,20,26-tetramethyl-11,19,25-trioxa-1,5,7,8-tetraazapentacyclo[24.2.2.1^6,^9.0^2,^7.0^13,^18]hentriaconta-2,4,6(31),8,13,15,17-heptaen-3-yl]acetic acid] was 12 nM; that for `Cc1nc2cc3nn2c(c1[C@H](OC(C)(C)C)C(=O)O)N1CCC(C)(CC1)OCCCCc1ccccc1C(=O)NC3` [Example 15, (2S)-2-(tert-Butoxy)-2-{4,24-dimethyl-12-oxo-23-oxa-1,5,7,8,11-pentaazapentacyclo[22.2.2.1^6,^9.0^2,^7.0^13,^18]nonacosa-2,4,6(29),8,13(18),14,16-heptaen-3-yl}acetic acid] was 120 nM; that for `Cc1nc2cc3nn2c(c1[C@H](OC(C)(C)C)C(=O)O)N1CCC(C)(CC1)OCCCc1ccccc1CCC3` [Example 25, (2S)-2-(tert-Butoxy)-2-{4,23-dimethyl-22-oxa-1,5,7,8-tetraazapentacyclo[21.2.2.1^6,^9.0^2,^7.0^13,^18]octacosa-2,4,6(28),8,13(18),14,16-heptaen-3-yl}acetic acid] was 31 nM. The same measure, in the same setting: the result for `Cc1cc(CN2CCCCOC3(C)CCN(CC3)c3c([C@H](OC(C)(C)C)C(=O)O)c(C)nc4cc(nn34)CNC(=O)C2=O)ccc1F` [Example 19, (2S)-2-(tert-Butoxy)-2-{14-[(4-fluoro-3-methylphenyl)methyl]-4,20-dimethyl-12,13-dioxo-19-oxa-1,5,7,8,11,14-hexaazatetracyclo[18.2.2.1^6,^9.0^2,^7]pentacosa-2,4,6(25),8-tetraen-3-yl}acetic acid] reads 34 nM; that for `Cc1nc2cc3nn2c(c1[C@H](OC(C)(C)C)C(=O)O)N1CCC(C)(CC1)OCC=CCc1ccccc1C(=O)NC3` [Example 14, (2S)-2-(tert-Butoxy)-2-[4,24-dimethyl-12-oxo-23-oxa-1,5,7,8,11-pentaazapentacyclo[22.2.2.1^6,^9.0^2,^7.0^13,^18]nonacosa-2,4,6(29),8,13(18),14,16,20-octaen-3-yl]acetic acid], 45 nM; that for `Cc1nc2cc3nn2c(c1[C@H](OC(C)(C)C)C(=O)O)N1CCC(C)(CC1)OCCCC[C@H](C)Oc1c(F)cc(F)cc1CCC3` [Example 41, (2S)-2-(tert-Butoxy)-2-[(20S)-15,17-difluoro-4,20,26-trimethyl-19,25-dioxa-1,5,7,8-tetraazapentacyclo[24.2.2.1^6,^9.0^2,^7.0^13,^18]hentriaconta-2,4,6(31),8,13(18),14,16-heptaen-3-yl]acetic acid], 10 nM. On to `Cc1nc2cc3nn2c(c1[C@H](OC(C)(C)C)C(=O)O)N1CCC(C)(CC1)OCCCCCc1ccccc1COC3` [Example 57, (2S)-2-(tert-Butoxy)-2-{4,25-dimethyl-11,24-dioxa-1,5,7,8-tetraazapentacyclo[23.2.2.1^6,^9.0^2,^7.0^13,^18]triaconta-2,4,6(30),8,13(18),14,16-heptaen-3-yl}acetic acid], for which the EC50 is 34 nM. `Cc1cc2c(cc1Cl)COCc1cc3nc(C)c([C@H](OC(C)(C)C)C(=O)O)c(n3n1)N1CCC(C)(CC1)OCCCCC[C@H](C)O2` [Example 70, (2S)-2-(tert-Butoxy)-2-[(20S)-15-chloro-4,16,20,27-tetramethyl-11,19,26-trioxa-1,5,7,8-tetraazapentacyclo[25.2.2.1^6,^9.0^2,^7.0^13,^18]dotriaconta-2,4,6(32),8,13,15,17-heptaen-3-yl]acetic acid]: the EC50 was found to be 43 nM. On the same count and under the same terms, the result for `Cc1nc2cc3nn2c(c1[C@H](OC(C)(C)C)C(=O)O)N1CCC(C)(CC1)OCCCC[C@H](C)Oc1cc(F)ccc1CCC3` [Example 39, (2S)-2-(tert-Butoxy)-2-[(20S)-16-fluoro-4,20,26-trimethyl-19,25-dioxa-1,5,7,8-tetraazapentacyclo[24.2.2.1^6,^9.0^2,^7.0^13,^18]hentriaconta-2,4,6(31),8,13(18),14,16-heptaen-3-yl]acetic acid] reads 5 nM; that for `Cc1nc2cc3nn2c(c1[C@H](OC(C)(C)C)C(=O)O)N1CCC(C)(CC1)OCCCCCCc1ccccc1COC3` [Example 58, (2S)-2-(tert-Butoxy)-2-{4,26-dimethyl-11,25-dioxa-1,5,7,8-tetraazapentacyclo[24.2.2.1^6,^9.0^2,^7.0^13,^18]hentriaconta-2,4,6(31),8,13(18),14,16-heptaen-3-yl}acetic acid], 62 nM.

The test is the same for the next values; noted with them: NL-RLuc virus infecting MT-2 cells, 5 days of incubation, 10% FBS, luciferase quantitation; at least 2 experiments; read-out: EC50.
In the case of `Cc1nc2cc3nn2c(c1[C@H](OC(C)(C)C)C(=O)O)N1CCC(C)(CC1)OC/C=C\Cc1ccccc1OC3` [Example 22, (2S)-2-(tert-Butoxy)-2-[(19Z)-4,23-dimethyl-11,22-dioxa-1,5,7,8-tetraazapentacyclo[21.2.2.1^6,^9.1^2,^7.0^12,^17]octacosa-2,4,6(28),8,12(17),13,15,19-octaen-3-yl]acetic acid], the EC50 came to 141 nM. On the same count and under the same terms, the value for `Cc1nc2cc3nn2c(c1[C@H](OC(C)(C)C)C(=O)O)N1CCC(C)(CC1)OCC/C=C\c1ccccc1OC3` [Example 20] was 105 nM; that for `Cc1nc2cc3nn2c(c1[C@H](OC(C)(C)C)C(=O)O)N1CCC(C)(CC1)O/C=C\CCc1ccccc1OC3` [Example 21, (2S)-2-(tert-Butoxy)-2-[(20Z)-4,23-dimethyl-11,22-dioxa-1,5,7,8-tetraazapentacyclo[21.2.2.1^6,^9.1^2,^7.0^12,^17]octacosa-2,4,6(28),8,12(17),13,15,20-octaen-3-yl]acetic acid] was 646 nM; that for `Cc1ccc2c(c1)O[C@@H](C)C/C=C\COC1(C)CCN(CC1)c1c([C@H](OC(C)(C)C)C(=O)O)c(C)nc3cc(nn13)COC2` [Example 36, (2S)-2-(tert-Butoxy)-2-[(20S,22Z)-4,16,20,26-tetramethyl-11,19,25-trioxa-1,5,7,8-tetraazapentacyclo[24.2.2.1^6,^9.0^2,^7.0^13,^18]hentriaconta-2,4,6(31),8,13(18),14,16,22-octaen-3-yl]acetic acid] was 3690 nM.

Staying with this test, now noted: {}.
Consider `Cc1nc2cc3nn2c(c1[C@H](OC(C)(C)C)C(=O)O)N1CCC(C)(CC1)OCCCCC(c1ccccc1)Oc1ccc(F)cc1COC3` (stereo partly drawn) [Example 52, (2S)-2-(tert-butoxy)-2-{15-fluoro-4,26-dimethyl-20-phenyl-11,19,25-trioxa-1,5,7,8-tetraazapentacyclo[24.2.2.1^6,^9.0^2,^7.0^13,^18]hentriaconta-2,4,6(31),8,13(18),14,16-heptaen-3-yl}acetic acid], for which the EC50 turned out to be 60 nM.
